Values of other authors as cited in US20230056788A1, “METHODS AND COMPOSITIONS FOR THE INHIBITION OF HEPATITIS B AND HEPATITIS D VIRUS INFECTIONS” (priority 2020, published 2023).
In the oligonucleotide strings, read from the 5' end, every base follows the letter of its sugar. An asterisk marks phosphorothioate; unmarked linkages are phosphodiester. Other units and linkages are bracketed, terminal groups are in braces. A string of capitals states the bases alone. [5mC] = 5-methylcytosine; m = 2'-O-methyl

How the values were obtained:
HBV [1] = test system: HBV
HBV [2] = settings: HBeAg positive and negative chronic infection and HBV/HDV co-infection

Substance	antiviral activity (HBV [1])	activity against infections with multiple HBV genotypes (HBV [2])
(2′OMeA, 2′OMe-5-MeC)10 (mA*m[5mC]*mA*m[5mC]*mA*m[5mC]*mA*m[5mC]*mA*m[5mC]*mA*m[5mC]*mA*m[5mC]*mA*m[5mC]*mA*m[5mC]*mA*m[5mC]; further chemistry not fully specified) [REP 2179, phosphorothioate 20mer counterpart of REP 2139]	(hydrophobic, inactive	
(2′OMeA, 2′OMe-5-MeC)20 (mA*m[5mC]*mA*m[5mC]*mA*m[5mC]*mA*m[5mC]*mA*m[5mC]*mA*m[5mC]*mA*m[5mC]*mA*m[5mC]*mA*m[5mC]*mA*m[5mC]*mA*m[5mC]*mA*m[5mC]*mA*m[5mC]*mA*m[5mC]*mA*m[5mC]*mA*m[5mC]*mA*m[5mC]*mA*m[5mC]*mA*m[5mC]*mA*m[5mC]; further chemistry not fully specified) [REP 2139]		potently active
(2′OMeA, 2′OMe-5-MeC)20 (mAm[5mC]mAm[5mC]mAm[5mC]mAm[5mC]mAm[5mC]mAm[5mC]mAm[5mC]mAm[5mC]mAm[5mC]mAm[5mC]mAm[5mC]mAm[5mC]mAm[5mC]mAm[5mC]mAm[5mC]mAm[5mC]mAm[5mC]mAm[5mC]mAm[5mC]mAm[5mC]; further chemistry not fully specified) [REP 2147, non phosphorothioated (phosphodiester) counterpart of REP 2139]	inactive	
